The test system of one test is 3T3-L1 adipocytes. Briefly: Glucose transport in 3T3-L1 adipocytes. Format: cell-based. Here is the method: FIGS. 54A-D show glucose uptake regulation by PAHSAs and Glut4 translocation via GPR120. FIG. 54A is a bar graph showing insulin-stimulated glucose transport in 3T3-L1 adipocytes treated 9-PAHSA (20 μM) or vehicle (DMSO) control for 6 days. n=6 per group, *p<0.05 compared to vehicle by t-test. FIG. 54B is a bar graph showing insulin (10 nM)-stimulated glucose transport in 3T3-L1 adipocytes transfected with control siRNA or GPR120 siRNA and treated 5-PAHSA (10 μM), 9-PAHSA (10 μM) or vehicle (DMSO) control for 2 days. n=3 per group, *p<0.05 compared to DMSO+control siRNA or GPR120 siRNA alone, $p<0.05 compared to control siRNA or GPR120 siRNA+insulin and GPR120 siRNA+insulin+PAHSA by t-test. FIG. 54C is a panel showing Glut4 plasma membrane translocation in 3T3-L1 adipocytes transfected with control siRNA or GPR120 siRNA and treated with 9-PAHSA in the presence or absence of insulin. 6 separate experiments were carried out without RNAi and 3 experiments with RNAi; each experiment had greater than 50 cells per experimental condition. FIG. 54D is a bar graph showing quantification of Glut4 translocation in panel C. *p<0.05 compared to control siRNA+insulin and GPR120 siRNA+insulin+9-PAHSA by t-test. All data are presented as mean±s.e.m. See also FIG. 57.
For all cell culture experiments, FAHFAs were solubilized in DMSO at a concentration of 20 mM and further diluted in assay buffer or cell culture media to the working concentrations indicated for each assay. In all instances an equivalent volume of vehicle (DMSO) was added to control treatment groups.

A further test deals with Ins1 cells. Description: Insulin release in INS1 cells. Format: cell-based. Conditions: 25 mM glucose in the media. Here is the method:
Ins1 cells (FIG. 21) or primary rat islet cells (FIG. 22) were seeded in 24 well-plates [˜10^6 cells/well]. At confluence, cells were incubated with Low Serum [2.5%] and Low Glucose [2.5 mM] media for 12 hours. Next, cells were incubated with KRB buffer for 1 h and stimulated with glucose in the presence of 5-PAHSA (FIG. 21) or 9-PAHSA (FIG. 21) for 45 min in KRB. At the end of the stimulation, 100 μL of media was collected and 10 μL was used to quantitate the amount of insulin released by ELISA. Treatment Conditions for FIGS. 21 and 22 were: • 5-PAHSA or 9-PAHSA [Stock]=20.0 mM [10.76 mg/mL Methanol] • A] 1 uM=0.3 uL/6 mL [Amount of methanol/mL=0.05 uL] • B] 5 uM=1.5 uL/6 mL [Amount of methanol/mL=0.25 uL] • C] 10 uM=3.0 uL/6 mL [Amount of methanol/mL=0.50 uL] • D] 20 uM=6.0 uL/6 mL [Amount of methanol/mL=1.00 uL]
INS-1 cells were seeded in 24 well-plates [˜10^6 cells/well] and at 80% confluence, were cultured overnight in RPMI 1640 medium containing 2.5 mM glucose and 2.5% fetal bovine serum supplemented with 100 IU/ml penicillin and […], 1 mM sodium pyruvate, 2-mercaptoethanol (50 μM) and 10 mM HEPES (pH 7.4). […] At the end of the stimulation supernatant was collected and insulin released into the medium was quantified by ELISA as per manufacturer's protocol. […]

A further test has as its system aged chow-fed mice. Briefly: Oral glucose tolerance test in aged chow-fed mice, with serum insulin and GLP-1. Format: in vivo, mouse. Here is the method:
Area under the curve (AUC), *p<0.05 compared to vehicle. […] Area above the curve (AAC). *p<0.05 compared to vehicle. […] Area under the curve (AUC). *p<0.05 compared to vehicle. FIG. 53D is a bar graph showing serum insulin levels 5 min post glucose challenge in chow-fed mice gavaged with 5-PAHSA or vehicle (glucose values shown in FIG. 53C). n=12-14 per group, *p<0.05 compared to vehicle by t-test. FIG. 53E is a bar graph showing serum GLP-1 levels 5 min post glucose challenge from chow-fed mice gavaged with 5-PAHSA or vehicle (glucose levels in FIG. 53C). n=12-14 per group, *p<0.05 compared to vehicle by t-test. FIG. 53F are bar graphs showing insulin secretion from primary human islets from two independent donors. Islets were incubated with low (2.5 mM) or high (20 mM) glucose ex vivo in the presence of 5-PAHSA (20 μM) or vehicle control. n=100 islets per condition, *p<0.05 compared to control 2.5 mM glucose, ^#p<0.05 compared to respective treatments at 2.5 mM glucose, ^$p<0.05 compared to control or diluents at 20 mM glucose by t-test. FIG. 53G are bar graphs showing active GLP-1 secretion from STC-1 cells in response to 5-PAHSA (5-P), 9-PAHSA (9P), […] (LA), GW9508 (GW) or vehicle control (DMSO). n=4 per group, *p<0.05 compared to vehicle by t-test. All data are mean±s.e.m. See also FIG. 56.
Studies were conducted to determine whether the PAHSA effects to improve glucose tolerance resulted entirely from the increased insulin sensitivity or also from improved insulin secretion. Therefore, the effects of PAHSAs on glucose-stimulated insulin secretion were tested in vivo in aged (47 weeks old) chow-fed mice. […] Thus, PAHSAs acutely improve insulin sensitivity and glucose tolerance and stimulate GLP-1 and insulin secretion.

The mark [1] stands for this setting: 5 minutes after glucose administration.

From patent US10604473B2, “Lipids that increase insulin sensitivity and methods of using the same” (Beth Israel Deaconess Medical Center, Inc., priority 2013, dated 2020) come the findings set out here.

On to `CCCCCCCCCCCCCCCC(=O)OC(CCCCCCCCC)CCCCCCCC(=O)O` (stereo not shown) [9-PAHSA, palmitoyl-9-hydroxystearic acid], for which the glucose transport entry in the test on 3T3-L1 adipocytes (basal state) is “modestly increased glucose transport”. In the test on Ins1 cells, the insulin secretion result is listed as “potentiate insulin secretion”.
As to `CCCCCCCCCCCCCCCC(=O)OC(CCCCCCCCCCCCC)CCCC(=O)O` (stereo not shown) [5-PAHSA], in the test with aged chow-fed mice (setting [1]), the GLP-1 levels entry is on record as “increased” and the insulin secretion entry was “acute enhancement of insulin secretion”. For the same compound, in the test on aged chow-fed mice (OGTT, gavage 30 min prior), the glucose tolerance result is “improved glucose tolerance”. Moreover, in the test on 3T3-L1 adipocytes, the insulin-stimulated glucose transport result was “enhanced insulin-induced glucose transport”. In the test on Ins1 cells, the insulin secretion entry is given as “potentiate insulin secretion”.
